Test: solvent given as SMILES

## C(=C\c1ccc(-c2nnc(-c3ccccc3)o2)cc1)/c1ccc(-c2nnc(-c3ccccc3)o2)cc1
In CN(C)C=O
  absorption maximum: 347 nm

## CC(C)[Si](C#Cc1c2nsnc2c(C#C[Si](C(C)C)(C(C)C)C(C)C)c2nc3c4ccccc4c(=O)c4ccccc4c3nc12)(C(C)C)C(C)C
In ClCCl
  absorption maximum: 561 nm

## CCOC(=O)c1c(-c2cc3c(ccc4ccccc43)oc2=O)nn(-c2cccc(C)c2)c1C(=O)OCC
In ClCCl
  absorption maximum: 361 nm

## CCCCCCc1cc(-c2ccc3c(c2)C2CCCC2N3c2ccc3c(c2)C(C)(C)c2ccccc2-3)sc1/C=C1\C(=O)c2ccc(C(=O)O)cc2C1=O (stereo unspecified)
In ClC(Cl)Cl
  absorption maximum: 611 nm

## CCCCCCCCCCCCOc1cc2c3c(ccc4c5c(OC6CCC(C(C)(C)C)CC6)cc6c7c(ccc(c1c34)c75)C(=O)N(C1CCCCC1)C6=O)C(=O)N(C1CCCCC1)C2=O (stereo unspecified)
In ClC(Cl)Cl
  absorption maximum: 558 nm

## CCN(CC)c1ccc2cc(-c3nc4ccccc4n3-c3ccccc3)c(=O)oc2c1
In ClCCl
  absorption maximum: 410 nm

## Clc1ccc(/C=C/c2ccc(-c3nc4c5cccnc5c5ncccc5c4[nH]3)cc2)cc1
In C1CCOC1
  absorption maximum: 376 nm
In CC#N
  absorption maximum: 368 nm
In CO
  absorption maximum: 360 nm
In ClCCl
  absorption maximum: 377 nm

## C=Cc1ccc(OC)cc1
In C1CCCCC1
  absorption maximum: 302 nm

## O=C(O)COc1cccc(OCC(=O)O)c1-c1c2ccc(=[N+]3CCCCC3)cc-2oc2cc(N3CCCCC3)ccc12
In CCO
  absorption maximum: 557 nm
In O
  absorption maximum: 567 nm

## CC(C)(C)c1ccc(N2c3ccc(C(C)(C)C)cc3B3c4cc(C(C)(C)C)ccc4N(c4ccc(C(C)(C)C)cc4)c4cc(-n5c6ccc(C(C)(C)C)cc6c6cc(C(C)(C)C)ccc65)cc2c43)cc1
In Cc1ccccc1
  absorption maximum: 451 nm

## N#C/C(=C(/C#N)c1ccc(-c2ccncc2)cc1)c1ccc(-c2ccncc2)cc1
In ClCCl
  absorption maximum: 343 nm

## CCCCCCCCCCCC#CC#CCCCCCCCCCN1C(=O)c2ccc3c4ccc5c6c(ccc(c7ccc(c2c37)C1=O)c64)C(=O)N(CCCCCCCCCC#CC#CCCCCCCCCCCCC)C5=O
In ClC(Cl)Cl
  absorption maximum: 526 nm

## CN(C)c1ccc(C(=O)Nc2ccccc2)cc1
In C1CCCCC1
  absorption maximum: 307 nm
In C1CCOC1
  absorption maximum: 311 nm
In CC#N
  absorption maximum: 314 nm
In CCOCC
  absorption maximum: 307 nm

## CCn1c2ccccc2c2cccc(N(c3ccccc3)c3ccccc3)c21
In ClCCl
  absorption maximum: 353 nm

## Cn1c(=O)c(/N=N/c2cc(S(=O)(=O)O)ccc2C(=O)O)c(O)c2ccccc21
In C1CCOC1
  absorption maximum: 408 nm
In CC(C)=O
  absorption maximum: 407 nm
In CCOC(C)=O
  absorption maximum: 407 nm
In CO
  absorption maximum: 406 nm
In CS(C)=O
  absorption maximum: 417 nm
In Cc1ccccc1
  absorption maximum: 421 nm
In ClCCl
  absorption maximum: 420 nm
In O
  absorption maximum: 421 nm

## CCCCCCCC[n+]1ccc(-c2cc[n+](CCCCCCCC)cc2)cc1
In CC#N
  absorption maximum: 264 nm

## N#CC(C#N)=Cc1ccc(-c2cccc(-c3nc4ccccc4s3)c2O)o1
In CCO
  absorption maximum: 421 nm
In ClCCl
  absorption maximum: 428 nm
In O
  absorption maximum: 443 nm

## CN(C)c1ccc(C2=Cc3cccc[n+]3[B-](F)(F)O2)cc1
In C1CCOC1
  absorption maximum: 420 nm
In C1COCCO1
  absorption maximum: 417 nm
In CC1CCCCC1
  absorption maximum: 413 nm
In CC#N
  absorption maximum: 417 nm
In CCOC(C)=O
  absorption maximum: 416 nm
In CCOCC
  absorption maximum: 413 nm
In CN(C)C=O
  absorption maximum: 423 nm
In CO
  absorption maximum: 418 nm
In COC(C)=O
  absorption maximum: 417 nm
In ClC(Cl)Cl
  absorption maximum: 426 nm

## CCOC(=O)CN1C(=O)C2=C(c3ccc(N4CCCCC4)cc3)N(CC(=O)OCC)C(=O)C2=C1c1ccccc1
In CC#N
  absorption maximum: 500 nm
In CS(C)=O
  absorption maximum: 516 nm
In Cc1ccccc1
  absorption maximum: 499 nm

## N#C/C(=C\c1ccc(C=C(c2ccccc2)c2ccccc2)cc1)c1ccccc1
In C1CCOC1
  absorption maximum: 366 nm

## Fc1ccc(-c2c3ccccc3nc3cc4ccccc4cc23)cc1
In ClCCl
  absorption maximum: 400 nm

## CCCCCCOc1ccc2c(c1)C1=[N+]3C2=Cc2c4ccc(OCCCCCC)cc4c4n2[B-]3(Oc2ccccc21)Oc1ccccc1-4 (stereo unspecified)
In C1CCOC1
  absorption maximum: 748 nm

## CC1(C)c2ccccc2N2c3ccccc3C3(c4cc(C#N)ccc4-c4ccc(C#N)cc43)c3cccc1c32
In Cc1ccccc1
  absorption maximum: 327.78 nm

## CCC(CC)COC1=CC2=C3c4cc(OCC(CC)CC)c(-c5cccs5)n4[B-](F)(F)[n+]4nnn(c43)[B-](F)(F)[N+]2=C1c1cccs1
In C1CCOC1
  absorption maximum: 784 nm
In ClCCl
  absorption maximum: 795 nm

## CC[N+](CC)=c1ccc2c(-c3ccccc3C(=O)O)c3oc4cc(N)ccc4c3oc-2c1
In CCO
  absorption maximum: 572 nm
In ClCCl
  absorption maximum: 581 nm
In O
  absorption maximum: 581 nm

## COc1ccccc1-c1nc2c3ccccc3c3ccccc3c2o1
In Cc1ccccc1
  absorption maximum: 364 nm

## FC(F)(F)c1ccc(/C=C/c2ccc(-c3nnc(-c4ccc(-c5cc6ccccc6s5)cc4)o3)cc2)cc1
In CC#N
  absorption maximum: 333 nm
In CC(C)=O
  absorption maximum: 342 nm
In CCCCCCCC
  absorption maximum: 337 nm
In CCCCCCCCCCO
  absorption maximum: 340 nm
In CCCCCCCCO
  absorption maximum: 342 nm
In CCCCCO
  absorption maximum: 341 nm
In CCCO
  absorption maximum: 340 nm
In CN(C)C=O
  absorption maximum: 345 nm
In CO
  absorption maximum: 337 nm
In CS(C)=O
  absorption maximum: 342 nm

## C=CB1C=Cc2ccc3ccccc3c2N1
In C1CCCCC1
  absorption maximum: 355 nm

## CC(C)[Si](C#Cc1c2ccccc2c(C#C[Si](C(C)C)(C(C)C)C(C)C)c2nc3c(ccc4cc5ccccc5cc43)nc12)(C(C)C)C(C)C
In CCCCCC
  absorption maximum: 536 nm

## C#Cn1c(-c2cc(-c3nc4ccccc4n3C#C)cc(-c3nc4ccccc4n3C#C)c2)nc2ccccc21
In ClCCl
  absorption maximum: 305.5 nm

## c1ccc(-c2ccc(-c3ccc(-n4c5ccccc5c5ccccc54)cc3)c3nsnc23)cc1
In C1CCOC1
  absorption maximum: 394 nm
In CC(C)=O
  absorption maximum: 382 nm
In CCCCCC
  absorption maximum: 394 nm
In CCOCC
  absorption maximum: 392 nm

## F[B-]1(F)OC(c2ccc(C(F)(F)F)cc2)=Cc2c3ccccc3cc[n+]21
In ClC(Cl)Cl
  absorption maximum: 398.5 nm

## COCCC1=Cc2nc1ccc1[nH]c(cc1CCOC)c1nc(c(NC(=O)CCCC(=O)OC)cc3[nH]c2cc3CCOC)C(CCOC)=C1
In Cc1ccccc1
  absorption maximum: 670 nm

## C=CCOc1ccc(-c2nc3cc(C(NC(=O)OC(C)(C)C)C(=O)OC)ccc3o2)cc1 (stereo unspecified)
In CC1CCCCC1
  absorption maximum: 324 nm
In CC#N
  absorption maximum: 309 nm
In CO
  absorption maximum: 309 nm

## CC(C)c1cc(C(C)C)c(-c2ccc(-n3c4ccccc4n4c5ccccc5nc34)nc2)c(C(C)C)c1
In Cc1ccccc1
  absorption maximum: 345 nm

## c1ccc2c(c1)-c1ccccc1C21c2ccccc2-c2oc3c(c21)C1(c2ccccc2-c2ccccc21)c1ccccc1-3
In C1CCOC1
  absorption maximum: 367 nm

## CCCCCCCC1=C(C)C(=O)n2c1cc1[nH]c(C(=O)OC)c(C)c1c2=O
In C1CCCCC1
  absorption maximum: 393 nm
In CO
  absorption maximum: 397 nm
In CS(C)=O
  absorption maximum: 397 nm
In ClC(Cl)Cl
  absorption maximum: 396 nm
In c1ccccc1
  absorption maximum: 395 nm

## CCOC(=O)CCCCCn1c2ccc(N)cc2c(=O)c2cc(N)ccc21
In O
  absorption maximum: 455 nm

## N#Cc1c(N2CCCCC2)cc(-c2ccc3ccccc3c2)c2c1Cc1ccccc1-2
In C1CCOC1
  absorption maximum: 362 nm

## O=Cc1ccc(C2=C3C=c4c(oc5ccccc45)=[N+]3[B-](F)(F)n3c2cc2c4ccccc4oc23)cc1
In C1CCCCC1
  absorption maximum: 592.5 nm
In C1CCOC1
  absorption maximum: 589 nm
In CC#N
  absorption maximum: 585.5 nm
In CCOC(C)=O
  absorption maximum: 587 nm
In CN(C)C=O
  absorption maximum: 589 nm
In CO
  absorption maximum: 583 nm
In Cc1ccccc1
  absorption maximum: 597 nm
In ClCCl
  absorption maximum: 593.5 nm

## C[Si](C)(C)c1cccc2c(C#N)cccc12
In C1CCCCC1
  absorption maximum: 311 nm

## CN(CCO)c1ccc(/N=N/c2ccc([N+](=O)[O-])cc2)cc1
In CO
  absorption maximum: 487 nm
In OCC(O)CO
  absorption maximum: 509 nm
In OCCO
  absorption maximum: 498 nm
In Oc1ccccc1
  absorption maximum: 548 nm

## CCCC1(CCC)c2cc(C#N)ccc2-c2ccc(C#N)cc21
In C1CCCCC1
  absorption maximum: 319 nm

## CCOC(=O)c1cc(C(=O)OCC)c2c(C)ccc(OC(=O)OC(C)(C)C)c2n1
In CCO
  absorption maximum: 312 nm

## Cn1c2nc(=O)[nH]c(=O)c-2nc2ccccc21
In CC1CCCO1
  absorption maximum: 459 nm

## O=C([O-])c1c2ccccc2c(C(=O)[O-])c2ccccc12
In CN(C)C=O
  absorption maximum: 400 nm

## COc1ccc(-n2nc(C#N)c(N3CCCCC3)n2)cc1
In CC#N
  absorption maximum: 340 nm

## CC(C)(C)c1ccccc1N(c1ccccc1)c1ccc(S(=O)(=O)c2ccc(S(=O)(=O)c3ccc(N(c4ccccc4)c4ccccc4C(C)(C)C)cc3)cc2)cc1
In Cc1ccccc1
  absorption maximum: 348 nm

## CC1(C)C(/C=C/C=C/C=C/C=C2/N(CCCCCC(=O)O)c3ccc(S(=O)(=O)[O-])cc3C2(C)C)=[N+](CCCCCC(=O)O)c2ccc(S(=O)(=O)[O-])cc21
In CO
  absorption maximum: 753 nm
In O
  absorption maximum: 748 nm

## C[Si]1(C)c2cc(-c3ccc(-c4cccs4)s3)ccc2C=Cc2ccc(-c3ccc(-c4cccs4)s3)cc21
In ClCCl
  absorption maximum: 458 nm

## Cc1ccc2nc3c4c(c5ccccc5c3nc2c1)OC(=O)CC4c1ccc(C(F)(F)F)cc1 (stereo unspecified)
In ClC(Cl)Cl
  absorption maximum: 411 nm

## CN1C(=CC2=C([O-])C(=CC3=[N+](C)c4ccccc4C3(C)C)C2=C2C(=O)c3ccccc3C2=O)C(C)(C)c2ccccc21
In ClC(Cl)Cl
  absorption maximum: 675 nm

## COC1=[N+]2C(=C(c3ccccc3)c3ccc(OC)n3[B-]2(F)F)C=C1
In CC#N
  absorption maximum: 510 nm
In CCCCCC
  absorption maximum: 513 nm
In CCOC(C)=O
  absorption maximum: 512 nm
In CO
  absorption maximum: 511 nm
In ClCCl
  absorption maximum: 515 nm
